Assay: recombinant UMI read abundance after kanamycin selection (control-corrected) (log10(CPM+1)); higher = more efficient recombination; extreme values may be limits of the assay; sequences stand for … in AGTGCAGAGAAAATCGGCCAGTTTTCTCTGCCTGCAGTCCGCATGCCGTGGGACCCCTTGGGTTCTAACCTGTTGCCTAGATTTATGCAGCGGACTGCCTTTCTCCCAAAGTGATAAACCGG…AGGTTGGTTTCACT; site = the 11-nt donor
Outline: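 Reported values are log10(CPM+1) from a pooled Escherichia coli screen of donor and donor-binding-loop pairs for the IS621 bridge recombinase. Selection used IPTG (0.07 mM) plus kanamycin, against unselected plating, each in two replicates. Recombinant UMIs were amplified across the donor–target junction, sequenced, converted to CPM, averaged over replicates and scaled by control-derived factors.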
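Note: IS621 bridge recombinase in Escherichia coli cells against a fixed T5 target plasmid.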

## GTAGGCGCATGGACCGGTTTTCCCGGTAATCCGTATTTGCG (site GTAGGCGCTCG)
  recombinant UMI read abundance (log10): 1.47

## GTAGGCGCATGGACCGGTTTTCCCGGTAATCCGTATTTGCG (site GTAGTCGCTCG)
  recombinant UMI read abundance (log10): 0.407

## GTAGGGTCATGGACCGGTTTTCCCGGTAATCCGTATTTGTT (site GTAGGGTCTAA)
  recombinant UMI read abundance (log10): 2.38

## GTAGGTACATGGACCGGTTTTCCCGGTAATCCGTATTTGGC (site GTAGGTACTGA)
  recombinant UMI read abundance (log10): 1.79

## GTAGGTACATGGACCGGTTTTCCCGGTAATCCGTATTTGGC (site GTAGGTACTGC)
  recombinant UMI read abundance (log10): 2.38

## GTAGGTACATGGACCGGTTTTCCCGGTAATCCGTATTTGGC (site GTAGGTACTGG)
  recombinant UMI read abundance (log10): 0.159

## GTAGGTACATGGACCGGTTTTCCCGGTAATCCGTATTTGGC (site GTAGGTACTGT)
  recombinant UMI read abundance (log10): 1.53

## GTAGGTACATGGACCGGTTTTCCCGGTAATCCGTATTTGTC (site GTAGGTACTGA)
  recombinant UMI read abundance (log10): 1.99

## GTAGGTACATGGACCGGTTTTCCCGGTAATCCGTATTTGTC (site GTAGGTACTGC)
  recombinant UMI read abundance (log10): 0

## GTAGGTACATGGACCGGTTTTCCCGGTAATCCGTATTTGTC (site GTAGGTACTGG)
  recombinant UMI read abundance (log10): 1.97

## GTAGGTACATGGACCGGTTTTCCCGGTAATCCGTATTTGTC (site GTAGGTACTGT)
  recombinant UMI read abundance (log10): 1.35

## GTAGTAGCATGGACCGGTTTTCCCGGTAATCCGTATTTGCG (site GTAGTAGCTCG)
  recombinant UMI read abundance (log10): 2.62

## GTAGTAGCATGGACCGGTTTTCCCGGTAATCCGTATTTGCG (site GTAGTCGCTCG)
  recombinant UMI read abundance (log10): 0.72

## GTAGTAGCATGGACCGGTTTTCCCGGTAATCCGTATTTGCG (site GTAGTGGCTCG)
  recombinant UMI read abundance (log10): 1.53

## GTAGTAGCATGGACCGGTTTTCCCGGTAATCCGTATTTGCG (site GTAGTTGCTCG)
  recombinant UMI read abundance (log10): 1.32

## GTAGTATCATGGACCGGTTTTCCCGGTAATCCGTATTTGAC (site ATAGTATCTGT)
  recombinant UMI read abundance (log10): 3.09

## GTAGTATCATGGACCGGTTTTCCCGGTAATCCGTATTTGAC (site CTAGTATCTGT)
  recombinant UMI read abundance (log10): 2.47

## GTAGTATCATGGACCGGTTTTCCCGGTAATCCGTATTTGAC (site GTAGTATCTGT)
  recombinant UMI read abundance (log10): 3.41

## GTAGTATCATGGACCGGTTTTCCCGGTAATCCGTATTTGAC (site TTAGTATCTGT)
  recombinant UMI read abundance (log10): 2.29

## GTAGTATCATGGACCGGTTTTCCCGGTAATCCGTATTTGCC (site GTAGTATCTGG)
  recombinant UMI read abundance (log10): 2.55

## GTAGTATCATGGACCGGTTTTCCCGGTAATCCGTATTTGGC (site CTAGTATCTGT)
  recombinant UMI read abundance (log10): 0.582

## GTAGTATCATGGACCGGTTTTCCCGGTAATCCGTATTTGGC (site GTAGTATCTGC)
  recombinant UMI read abundance (log10): 3.51

## GTAGTCGCATGGACCGGTTTTCCCGGTAATCCGTATTTGCG (site ATAGTCGCTCG)
  recombinant UMI read abundance (log10): 0.405

## GTAGTCGCATGGACCGGTTTTCCCGGTAATCCGTATTTGCG (site CTAGTCGCTCG)
  recombinant UMI read abundance (log10): 0.145

## GTAGTCGCATGGACCGGTTTTCCCGGTAATCCGTATTTGCG (site GAAGTCGCTCG)
  recombinant UMI read abundance (log10): 0.0146

## GTAGTCGCATGGACCGGTTTTCCCGGTAATCCGTATTTGCG (site GCAGTCGCTCG)
  recombinant UMI read abundance (log10): 0.162

## GTAGTCGCATGGACCGGTTTTCCCGGTAATCCGTATTTGCG (site GGAGTCGCTCG)
  recombinant UMI read abundance (log10): 0.0136

## GTAGTCGCATGGACCGGTTTTCCCGGTAATCCGTATTTGCG (site GTAATCGCTCG)
  recombinant UMI read abundance (log10): 1.31

## GTAGTCGCATGGACCGGTTTTCCCGGTAATCCGTATTTGCG (site GTACTCGCTCG)
  recombinant UMI read abundance (log10): 0.0126

## GTAGTCGCATGGACCGGTTTTCCCGGTAATCCGTATTTGCG (site GTAGACGCTCG)
  recombinant UMI read abundance (log10): 0.714

## GTAGTCGCATGGACCGGTTTTCCCGGTAATCCGTATTTGCG (site GTAGCCGCTCG)
  recombinant UMI read abundance (log10): 0.584

## GTAGTCGCATGGACCGGTTTTCCCGGTAATCCGTATTTGCG (site GTAGGCGCTCG)
  recombinant UMI read abundance (log10): 0.0201

## GTAGTCGCATGGACCGGTTTTCCCGGTAATCCGTATTTGCG (site GTAGTAGCTCG)
  recombinant UMI read abundance (log10): 0.489

## GTAGTCGCATGGACCGGTTTTCCCGGTAATCCGTATTTGCG (site GTAGTCACTCG)
  recombinant UMI read abundance (log10): 1.24

## GTAGTCGCATGGACCGGTTTTCCCGGTAATCCGTATTTGCG (site GTAGTCCCTCG)
  recombinant UMI read abundance (log10): 0.553

## GTAGTCGCATGGACCGGTTTTCCCGGTAATCCGTATTTGCG (site GTAGTCGCTAG)
  recombinant UMI read abundance (log10): 1.23

## GTAGTCGCATGGACCGGTTTTCCCGGTAATCCGTATTTGCG (site GTAGTCGCTCA)
  recombinant UMI read abundance (log10): 0.421

## GTAGTCGCATGGACCGGTTTTCCCGGTAATCCGTATTTGCG (site GTAGTCGCTCC)
  recombinant UMI read abundance (log10): 0.0196

## GTAGTCGCATGGACCGGTTTTCCCGGTAATCCGTATTTGCG (site GTAGTCGCTCG)
  recombinant UMI read abundance (log10): 1.61

## GTAGTCGCATGGACCGGTTTTCCCGGTAATCCGTATTTGCG (site GTAGTCGCTCT)
  recombinant UMI read abundance (log10): 0.471

## GTAGTCGCATGGACCGGTTTTCCCGGTAATCCGTATTTGCG (site GTAGTCGCTGG)
  recombinant UMI read abundance (log10): 1.34

## GTAGTCGCATGGACCGGTTTTCCCGGTAATCCGTATTTGCG (site GTAGTCGCTTG)
  recombinant UMI read abundance (log10): 1.95

## GTAGTCGCATGGACCGGTTTTCCCGGTAATCCGTATTTGCG (site GTAGTCTCTCG)
  recombinant UMI read abundance (log10): 2

## GTAGTCGCATGGACCGGTTTTCCCGGTAATCCGTATTTGCG (site GTAGTGGCTCG)
  recombinant UMI read abundance (log10): 0.013

## GTAGTCGCATGGACCGGTTTTCCCGGTAATCCGTATTTGCG (site GTAGTTGCTCG)
  recombinant UMI read abundance (log10): 0.00541

## GTAGTCGCATGGACCGGTTTTCCCGGTAATCCGTATTTGCG (site GTATTCGCTCG)
  recombinant UMI read abundance (log10): 0.011

## GTAGTCGCATGGACCGGTTTTCCCGGTAATCCGTATTTGCG (site GTCGTCGCTCG)
  recombinant UMI read abundance (log10): 0.00603

## GTAGTCGCATGGACCGGTTTTCCCGGTAATCCGTATTTGCG (site GTGGTCGCTCG)
  recombinant UMI read abundance (log10): 0.0189

## GTAGTCGCATGGACCGGTTTTCCCGGTAATCCGTATTTGCG (site GTTGTCGCTCG)
  recombinant UMI read abundance (log10): 0.285

## GTAGTCGCATGGACCGGTTTTCCCGGTAATCCGTATTTGCG (site TTAGTCGCTCG)
  recombinant UMI read abundance (log10): 1.26

## GTAGTGACATGGACCGGTTTTCCCGGTAATCCGTATTTGCC (site GTAGTGACTGG)
  recombinant UMI read abundance (log10): 2.58

## GTATAGGCATGGACCGGTTTTCCCGGTAATCCGTATTTGTA (site GTATAGGCTTA)
  recombinant UMI read abundance (log10): 2.22

## GTATCTCCATGGACCGGTTTTCCCGGTAATCCGTATTTGAA (site GTATCTCCTTT)
  recombinant UMI read abundance (log10): 1.19

## GTATGAACATGGACCGGTTTTCCCGGTAATCCGTATTTGAG (site GTATGAACTCT)
  recombinant UMI read abundance (log10): 1.87

## GTATGCACATGGACCGGTTTTCCCGGTAATCCGTATTTGGA (site GTATGCACTTA)
  recombinant UMI read abundance (log10): 0.901

## GTATGCACATGGACCGGTTTTCCCGGTAATCCGTATTTGGA (site GTATGCACTTC)
  recombinant UMI read abundance (log10): 0.931

## GTATGCACATGGACCGGTTTTCCCGGTAATCCGTATTTGGA (site GTATGCACTTG)
  recombinant UMI read abundance (log10): 0.783

## GTATGCACATGGACCGGTTTTCCCGGTAATCCGTATTTGGA (site GTATGCACTTT)
  recombinant UMI read abundance (log10): 0.924

## GTATGGCCATGGACCGGTTTTCCCGGTAATCCGTATTTGCA (site GAATGGCCTTG)
  recombinant UMI read abundance (log10): 0

## GTATGGCCATGGACCGGTTTTCCCGGTAATCCGTATTTGCA (site GCATGGCCTTG)
  recombinant UMI read abundance (log10): 0

## GTATGGCCATGGACCGGTTTTCCCGGTAATCCGTATTTGCA (site GGATGGCCTTG)
  recombinant UMI read abundance (log10): 0

## GTATGGCCATGGACCGGTTTTCCCGGTAATCCGTATTTGCA (site GTATGGCCTTG)
  recombinant UMI read abundance (log10): 0

## GTATGTTCATGGACCGGTTTTCCCGGTAATCCGTATTTGAG (site GTATGTTCTCT)
  recombinant UMI read abundance (log10): 2.52

## GTATTACCATGGACCGGTTTTCCCGGTAATCCGTATTTGCA (site GTATTACCTTG)
  recombinant UMI read abundance (log10): 0

## GTATTATCATGGACCGGTTTTCCCGGTAATCCGTATTTGAC (site CTAGTATCTGT)
  recombinant UMI read abundance (log10): 1.38

## GTATTATCATGGACCGGTTTTCCCGGTAATCCGTATTTGAC (site GTATTATCTGT)
  recombinant UMI read abundance (log10): 2.66

## GTCAAACCATGGACCGGTTTTCCCGGTAATCCGTATTTGGT (site GACAAACCTAC)
  recombinant UMI read abundance (log10): 0

## GTCAAACCATGGACCGGTTTTCCCGGTAATCCGTATTTGGT (site GCCAAACCTAC)
  recombinant UMI read abundance (log10): 0

## GTCAAACCATGGACCGGTTTTCCCGGTAATCCGTATTTGGT (site GGCAAACCTAC)
  recombinant UMI read abundance (log10): 0

## GTCAAACCATGGACCGGTTTTCCCGGTAATCCGTATTTGGT (site GTCAAACCTAC)
  recombinant UMI read abundance (log10): 0

## GTCACACCATGGACCGGTTTTCCCGGTAATCCGTATTTGTT (site GTCACACCTAA)
  recombinant UMI read abundance (log10): 0.00382

## GTCACGACATGGACCGGTTTTCCCGGTAATCCGTATTTGGT (site GTCACGACTAC)
  recombinant UMI read abundance (log10): 1.06

## GTCACTGCATGGACCGGTTTTCCCGGTAATCCGTATTTGAT (site GTCACTGCTAT)
  recombinant UMI read abundance (log10): 1.99

## GTCAGAACATGGACCGGTTTTCCCGGTAATCCGTATTTGGC (site GTAAGAACTGC)
  recombinant UMI read abundance (log10): 0.371

## GTCAGAACATGGACCGGTTTTCCCGGTAATCCGTATTTGGC (site GTCAGAACTGC)
  recombinant UMI read abundance (log10): 1.57

Source: the supplement of paper PMC11208160
